Measurements: patent US6136810A, “Pyrido[2,3-D]pyrimidine derivatives and pharmaceutical compositions thereof” (priority 1995, dated 2000)
pIC50: −log10 of the molar value.

The compounds below were run on I, II, III and V type phosphodiesterase isozymes (assay: Activity to inhibit various phosphodiesterase isozymes (selectivity for type IV)). Settings: IC50 ratio vs types I.
Assay type: biochemical, rat (types I, III); human (type V)
From the text: [A] In order to evaluate selectivity of the compounds of the present invention for type IV phosphodiesterase, I, II, III and V type phosphodiesterase isozymes were purified in the following manner.
1) Solutions containing various phosphodiesterase (I, II and III types) isozymes were purified from rat heart muscle cells in the following manner. Under ether anesthesia, Wistar rat was subjected to thoracotomy to excise the heart. After removing blood by perfusion with physiological saline supplemented with heparin (1 unit/ml), the heart was finely chopped with scissors.
2) Solutions containing various phosphodiesterase isozymes were obtained from the thus obtained soluble fraction in the following manner. […] Each fraction was checked for cAMP- and cGMP-metabolizing phosphodiesterase activities. […] These fractions were separately collected to be used as phosphodiesterase (types I, II and III) stock solutions for the examination of selectivity.
3) A solution containing type V phosphodiesterase was prepared from peripheral blood of a healthy person in the following manner. A 200 ml portion of physiological saline supplemented with dextran (3%) was added to 500 ml of heparinized peripheral blood and incubated at 37° C. for 40 minutes to effect precipitation of erythrocytes. The supernatant fluid after precipitation of erythrocytes was recovered and centrifuged once, and the resulting precipitate was suspended in buffer B (140 mM NaCl, 5 mM KCl, 5 mM glucose and 10 mM HEPES, pH 7.4), overlaid on a solution for density gradient centrifugation use (Ficoll solution) and then centrifuged at room temperature for 40 minutes at 450×g, thereby separating monocyte fraction and granulocyte fraction.
Each fraction was checked for cAMP- and cGMP-metabolizing phosphodiesterase activities. Fractions having only cGMP metabolizing activity were collected to be used as the type V phosphodiesterase stock solution.
[B] Inhibitory activities were measured using the thus obtained stock solutions of various phosphodiesterase isozymes.
After completion of the reaction, the reaction mixture was boiled at 90° C. for 1 minute, cooled in an ice bath, mixed with 1 unit of 5'-nucleotidase and then subjected to 10 minutes of reaction at 30° C., and the reaction was stopped by adding 1 ml of methanol. The reaction solution was passed through a Dowex 1×8 column to effect adsorption of un-metabolized cAMP or cGMP and then radioactivity in the eluate was measured using a scintillation counter.
With `CCc1ccc2c(-c3cccc(Cl)c3)nc(=O)n(CC)c2n1` [Example 1, 4-(3-chlorophenyl)-1,7-diethylpyrido[2,3-d]pyrimidin-2(1H)-one] the “selectivity in inhibition activity against type IV PDE over the other types of PDE” value (shortened to “selectivity in inhibition activity”) was no less than 1000 times. In the case of `CCn1c(=O)nc(-c2cccc(Cl)c2)c2ccc(C)nc21` [Example 3, 4-(3-Chlorophenyl)-1-ethyl-7-methylpyrido[2,3-d]pyrimidin-2(1H)-one], the “selectivity in inhibition activity” value was no less than 1000 times. `CCn1c(=O)nc(-c2cccc(Br)c2)c2ccc(C)nc21` [Example 4, 4-(3-Bromophenyl)-1-ethyl-7-methylpyrido[2,3-d]pyrimidin-2(1H)-one] was tested, and the “selectivity in inhibition activity” value was no less than 1000 times. In the case of `CCn1c(=O)nc(-c2cccc(Cl)c2)c2ccc(C(C)O)nc21` (centres unmarked) [Example 19, 4-(3-chlorophenyl)-1-ethyl-7-(1-hydroxyethyl)pyrido[2,3-d]pyrimidin-2(1H)-one], the “selectivity in inhibition activity” value was no less than 1000 times.

Each compound was assayed against type IV phosphodiesterase (assay: Type IV phosphodiesterase inhibition activity measuring test (in vitro)). Settings: Table 1; human granulocyte type IV PDE, 1 μM cAMP, 30° C.; read-out: Type IV PDE inhibition activity IC50.
Assay type: biochemical
Procedure: The following assay was used for the evaluation of the capability of the compounds of the present invention to inhibit type IV phosphodiesterase.
1) Physiological saline (200 ml) supplemented with dextran (3%) was added to 500 ml of heparinized peripheral blood of a healthy person and incubated at 37° C. for 40 minutes to effect precipitation of erythrocytes. The supernatant after precipitation of erythrocytes was recovered and centrifuged once, and the resulting precipitate was suspended in buffer A (140 mM NaCl, 5 mM KCl, 5 mM glucose and 10 mM HEPES, pH 7.4), overlaid on a solution for density gradient centrifugation use (Ficoll solution) and then centrifuged at room temperature for 40 minutes at 450×g, thereby separating monocyte fraction and granulocyte fraction. The granulocyte fraction was washed once with buffer B (140 mM NaCl, 5 mM KCl; 1 mM CaCl2, 1 mM MgCl2, 5 mM glucose and 10 mM HEPES, pH 7.4) and suspended in buffer C (20 mM Bis-Tris, 5 mM dithioerythritol, 2 mM EGTA and 50 mM sodium acetate, pH 6.5) containing a protease inhibitor (50 μM phenyl-methyl-sulfonyl-fluoride, 5 μM pepstatin A, 40 μM leupeptin, 20 μM aprotinin or 2 mM benzamidine) and then the cells were disrupted using polytron and sonicator and subjected to ultracentrifugation (4° C., 100,000×g, 60 minutes) to give a soluble fraction.
2) The thus obtained soluble fraction was applied to a column of 1.6×10 cm packed with Q Sepharose which had been equilibrated with buffer C. Next, the column was washed with 300 ml of buffer C to remove non-absorbed protein. Phosphodiesterase was eluted with 200 ml of buffer C having 0.05 to 1.25 M linear gradient of sodium acetate to collect 40 fractions each containing 5.0 ml eluate. Each fraction was checked for cAMP- and cGMP-metabolizing phosphodiesterase activities. Fractions having no cGMP- but cAMP-metabolizing activity and showing disappearance of the metabolizing activity by 10 μM rolipram (a type IV phosphodiesterase selective inhibitor) were collected to be used as a stock solution for the examination of type IV phosphodiesterase inhibition activity.
3) A predetermined amount of each compound to be tested was subjected to 10 minutes of reaction at 30° C. in a reaction mixture containing 40 mM Tris-HCl (pH 8.0), 5 mM MgCl2, 4 mM 2-mercaptoethanol, 0.3 μM cilostamide (an III type phosphodiesterase selective inhibitor), 1 μM cAMP, 10 nM ^3 H-cAMP and the type IV phosphodiesterase stock solution. The reaction solution was boiled at 90° C. for 1 minute, cooled in an ice bath, mixed with 1 unit of 5'-nucleotidase and then subjected to 10 minutes of reaction at 30° C., and the reaction was stopped by the addition of 1 ml of methanol. The reaction solution was passed through a Dowex 1×8 column to adsorb un-hydrolyzed material and then the radioactivity was measured.
4) Concentration of each compound to be tested which inhibits 50% of the metabolic activity of type IV phosphodiesterase was calculated and expressed as IC50. Test results: Results of the measurement of the activity of the compounds of the present invention to inhibit type IV PDE are shown in Tables 1 and 2, together with the results of the compounds illustratively disclosed in the aforementioned U.S. Patent and similar comparative compounds which were separately synthesized.
Work on `CCn1c(=O)nc(-c2cccc(Cl)c2)c2ccc(C(C)O)nc21` (centres unmarked) [Example 19, 4-(3-chlorophenyl)-1-ethyl-7-(1-hydroxyethyl)pyrido[2,3-d]pyrimidin-2(1H)-one] yielded a pIC50 of 8.09. `CCn1c(=O)nc(-c2cccc(Cl)c2)c2ccc(C3CC3)nc21` [Example 22, 4-(3-Chlorophenyl)-7-cyclopropyl-1-ethylpyrido[2,3-d]pyrimidin-2(1H)-one] gave a pIC50 of 8.11. Work on `Cc1cccc(-c2nc(=O)n(CC3CC3)c3nc(C)ccc23)c1` [Example 33, 1-Cyclopropylmethyl-7-methyl-4-(3-methylphenyl)pyrido[2,3-d]pyrimidin-2(1H)-one] yielded a pIC50 of 8.21. `CCc1ccc2c(C3CCCCC3)nc(=O)n(CC)c2n1` [Example 34, 4-Cyclohexyl-1,7-diethylpyrido[2,3-d]pyrimidin-2(1H)-one] showed a pIC50 of 8.83. Compound `CCn1c(=O)nc(-c2cccc(Cl)c2)c2ccc(C=NO)nc21` [Example 36, 4-(3-chlorophenyl)-1-ethyl-7-hydroxyiminomethylpyrido[2,3-d]pyrimidin-2(1H)-one] has a pIC50 of 9.03. With `CCn1c(=O)nc(-c2cccc([N+](=O)[O-])c2)c2ccc(C)nc21` [Example 37, 1-Ethyl-7-methyl-4-(3-nitrophenyl)-pyrido[2;3-d]pyrimidin-2(1H)-one] the pIC50 was 8.32. Compound `CCn1c(=O)nc(-c2cccc(Cl)c2)c2ccc(C(C)SC(C)=O)nc21` (centres unmarked) [Example 40, 7-(1-acetylthioethyl)-4-(3-chlorophenyl)-1-ethylpyrido[2,3-d]pyrimidin-2(1H)-one] has a pIC50 of 8.24. `CCc1ccc2c(-c3cccc(Cl)c3)nc(=S)n(CC)c2n1` [Example 41, 4-(3-Chlorophenyl)-1,7-diethylpyrido[2,3-d]pyrimidin-2(1H)-thione] gave a pIC50 of 9.07.

Same assay, conditions: Table 2; human granulocyte type IV PDE, 1 μM cAMP, 30° C.; read-out: Type IV PDE Inhibition IC50
With `CCc1ccc2c(-c3cccc(Cl)c3)nc(=O)n(CC)c2n1` [Example 1, 4-(3-chlorophenyl)-1,7-diethylpyrido[2,3-d]pyrimidin-2(1H)-one] the pIC50 was 9.09. `CCc1ccc2c(-c3cccc(Br)c3)nc(=O)n(CC)c2n1` [Example 2, 4-(3-Bromophenyl)-1,7-diethylpyrido[2,3-d)pyrimidin-2(1H)-one] was tested, and the pIC50 was 8.94. `CCn1c(=O)nc(-c2cccc(Cl)c2)c2ccc(C)nc21` [Example 3, 4-(3-Chlorophenyl)-1-ethyl-7-methylpyrido[2,3-d]pyrimidin-2(1H)-one] gave a pIC50 of 8.63. In the case of `CCn1c(=O)nc(-c2cccc(Br)c2)c2ccc(C)nc21` [Example 4, 4-(3-Bromophenyl)-1-ethyl-7-methylpyrido[2,3-d]pyrimidin-2(1H)-one], the pIC50 was 8.84. Compound `CCn1c(=O)nc(-c2cccc(C)c2)c2ccc(C)nc21` [Example 5, 1-Ethyl-7-methyl-4-(3-methylphenyl)-pyrido[2,3-d]pyrimidin-(1H)-one] has a pIC50 of 8.46. Compound `CCc1ccc2c(-c3cccc(C)c3)nc(=O)n(CC)c2n1` [Example 6, 1,7-Diethyl-4-(3-methylphenyl)pyrido[2,3-d]pyrimidin-2(1H)-one] has a pIC50 of 8.43. `CCn1c(=O)nc(-c2ccccc2Cl)c2cccnc21` [compound 1, 4-(2-chlorophenyl)-1-ethylpyrido[2,3-d]pyrimidin-2(1H)-one, reference compound] gave a pIC50 of 5.55. Work on `CC(C)n1c(=O)nc(-c2ccc(Cl)cc2)c2cccnc21` [compound 2, reference compound] yielded a pIC50 of less than 5.52. With `CCn1c(=O)nc(-c2ccc(Cl)cc2)c2cccnc21` [compound 3, 4-(4-chlorophenyl)-1-ethylpyrido[2,3-d]pyrimidin-2(1H)-one, reference compound] the pIC50 was less than 5.52. `CC(C)n1c(=O)nc(-c2ccc(Cl)c(Cl)c2)c2cccnc21` [compound 4, reference compound] was tested, and the pIC50 was less than 5.52. `CCn1c(=O)nc(-c2ccc(Cl)c(Cl)c2)c2cccnc21` [compound 5, 4-(3,-4-dichlorophenyl)-1-ethylpyrido[2,3-d]pyrimidin-2(1H)-one, reference compound] gave a pIC50 of less than 5.52. `CC(C)n1c(=O)nc(-c2cccc(Cl)c2)c2cccnc21` [compound 6, 4-(3-chlorophenyl)-1-isopropylpyrido[2,3-d]pyrimidin-2(1H)-one, reference compound] was tested, and the pIC50 was 6.10. In the case of `CCn1c(=O)nc(-c2cccc(Cl)c2)c2cccnc21` [compound 7, 4-(3-chlorophenyl)-1-ethylpyrido[2,3-d]pyrimidin-2(1H)-one, reference compound], the pIC50 was 6.51. `CCn1c(=O)nc(-c2cccc(C)c2)c2cccnc21` [compound 8, 4-(3-methylphenyl)-1-ethylpyrido[2,3-d]pyrimidin-2(1H)-one, reference compound] was tested, and the pIC50 was 6.21.
